Laboratory results: patent US20260265538A1, “Aqueous Industrial Product Stabilized Against Microbial Contamination” (Thor GmbH, priority 2023, published 2026)
Counter-ions that a name gives are not always drawn.

Test system: Bacteria mixture 1 (Pseudomonas genus)
Experiment: Repetitive stress test of paints with bacteria mixture 1, semiquantitative evaluation (examples 2 and 3)
Format: cell-based
Source text: Paints 1 to 3 were mixed and homogenized with various concentrations of the guanidinium salts to be tested.
The batches obtained of the paint thus prepared were inoculated repeatedly with a mixture of different wild-type bacterial strains that are of practical relevance with regard to contamination. These bacteria had previously been isolated from commercial emulsion paints containing conventional preservatives (bacteria mixture 1, Pseudomonas genus), which are microbially contaminated in practice, and commercial so-called preservative-free alkaline emulsion paints (bacteria mixture 2, alkaliphilic bacteria of the Nesterenkonia & Alkalibacterium genus), which are microbially contaminated in practice.
• Pseudomonas spp. (Pseudomonas oleovorans group) DSM 33933 • Pseudomonas aeruginosa DSM 33935 • Pseudomonas oleovorans DSM 33936 • Pseudomonas putida DSM 33937 • Pseudomonas aeruginosa DSM 33938
The inoculum was added to the respective sample in each inoculation at 2% (v/w) as a fresh cell suspension in a physiological saline solution (0.9% NaCl). The cell count of the added inoculum in example 1 was 10^5/ml, in examples 2 to 5 10^9/ml, and in example 6 10^6/ml, each in equal portions consisting of the individual bacterial strains. The cell suspension was produced by growing the individual bacteria at 30° C. for 24 h in liquid culture on a shaker. The medium used to grow the bacteria from bacteria mixture 1 was Müller-Hinton liquid medium. Bacteria from bacteria mixture 2 were grown in Müller-Hinton liquid medium that had been adjusted to pH 9.5-9.7 with an alkaline buffer solution beforehand. After growing, the individual liquid cultures were centrifuged, and the cells were resuspended in physiological saline solution. In order to adjust the mixture to the desired cell count, the individual bacteria suspensions, if necessary, were diluted accordingly before being combined with saline solution. The cell count of the inoculum was determined in each case by chamber counting.
In examples 2 to 6, what is called a repetitive stress test with bacteria was conducted by inoculating the samples at particular time intervals repeatedly with a bacteria suspension having a cell count of 10^9/ml (2% v/w) and monitoring the evolution of the bacteria by a semiquantitative evaluation method. After each inoculation, the samples were incubated at 30° C. for 6 days (bacteria mixture 1 and 3) or 7 and 14 days (bacteria mixture 2), and after these periods bacterial infestation was evaluated semiquantitatively in each case. For this purpose, an aliquot was taken from each sample after homogenization using a sterile plastic inoculation loop (10 μl) and streaked evenly on agar plates (bacteria mixture 1 and 3 on tryptic soy agar, bacteria mixture 2 on DSMZ 31 alkaline nutrient agar). The streaked agar plates were then incubated at 30° C. for 48 h (bacteria mixture 1 and 3) or 5 to 7 days (bacteria mixture 2). After incubation, the bacterial colonies grown on the agar plates were visually evaluated and quantified according to the following scheme:
A total of 3 inoculation cycles was performed in each repetitive stress test.
Inoculation 2% (w/v) with Bacteria Mixture 1, 10^9 CFU/ml
2% (w/v) Inoculation with Bacteria Mixture 1, […]

Measured: Stabilization of the paint against microbial infestation

N=C(N)N [guanidine hydrochloride]
distinct stabilization: table 2, addition of 0.25% by weight to paint 1 having a pH of pH 8.5 | table 2, addition of 0.25% by weight to paint 2 having a pH of 9.0 | table 3, paint 1, pH of 7.5, addition of 0.8% by weight | table 3, paint 2, pH of pH 7.6, addition of 0.8% by weight
